The values below come from patent US20250154127A1, “BICYCLIC HETEROARYL COMPOUNDS AND USES THEREOF” (ETERN BIOPHARMA (SHANGHAI) CO., LTD., priority 2022, published 2025).

Test [1] concerns the target TEAD1(210-426) binding to YAP(50-100) (Homo sapiens, UniProt P28347). In words: TR-FRET Assay for TEAD1(210-426) Binding to YAP(50-100). The conditions noted are these: His-TEAD 10 nM, YAP-Biotin peptide 50 nM. The essentials: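 10 nM His-TEAD1 preincubated 30 min at room temperature with compound (3-fold dilutions, 12 points, 1% DMSO), then 50 nM biotin-YAP peptide added.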

The next test deals with MSTO-211H cells. Nature of the test: Proliferation Assay (CellTiter-Glo Luminescent Cell Viability Assay). It counts as cell-based. The conditions noted are these: Homo sapiens, 96 hours treatment. A digest of the protocol: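 MSTO-211H cells, 1,500/well in RPMI 1640 with 10% FBS, plated overnight, then treated 96 h with 9-point 3-fold compound series in duplicate (DMSO below 0.5%). Viability by CellTiter-Glo luminescence; inhibition relative to DMSO wells, IC50 by four-parameter fit.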

Chain of TEAD1(210-426) binding to YAP(50-100) (P28347 209-426): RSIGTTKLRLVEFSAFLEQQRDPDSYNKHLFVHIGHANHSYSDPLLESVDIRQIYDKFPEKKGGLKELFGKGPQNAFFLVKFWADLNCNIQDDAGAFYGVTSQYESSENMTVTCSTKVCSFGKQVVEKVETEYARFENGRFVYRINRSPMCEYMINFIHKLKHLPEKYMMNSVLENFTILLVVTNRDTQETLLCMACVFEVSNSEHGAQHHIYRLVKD

`CNc1ccnc(Cn2ccc(-c3nn(-c4ccc(C(F)(F)F)cc4)c4ncccc34)cc2=O)n1` [Compound 70, 1-((4-(methylamino)pyrimidin-2-yl)methyl)-4-(1-(4-(trifluoromethyl)phenyl)-1H-pyrazolo[3,4-b]pyridin-3-yl)pyridin-2(1H)-one]: the concentration for half-maximal inhibition (IC50) in test [1] was at most 100 nM; with MSTO-211H cells, at most 1000 nM.

On to `O=c1cc(-c2nn(-c3ccc(C(F)(F)F)cc3)c3ccccc23)ccn1Cc1nccc(O)n1` [Compound 71], for which the IC50 was at most 100 nM in test [1] and at most 1000 nM in the test on MSTO-211H cells.

For `CN(CCO)c1nccc(Cn2ccc(-c3nn(-c4ccc(C(F)(F)F)cc4)c4ncccc34)cc2=O)n1` [Compound 72], the IC50 in test [1] is at most 100 nM; with MSTO-211H cells, at most 1000 nM.

In the case of `O=c1cc(-c2nn(-c3ccc(C(F)(F)F)cc3)c3ncccc23)ccn1Cc1ccnc(NCCO)n1` [Compound 73, 1-((2-((2-hydroxyethyl)amino)pyrimidin-4-yl)methyl)-4-(1-(4-(trifluoromethyl)phenyl)-1H-pyrazolo[3,4-b]pyridin-3-yl)pyridin-2(1H)-one], the concentration for half-maximal inhibition (IC50) in test [1] was at most 100 nM; with MSTO-211H cells, at most 1000 nM.

As to `O=c1cc(-c2nn(-c3ccc(C(F)(F)F)cc3)c3ncccc23)ccn1Cc1ccn(CCO)n1` [Compound 74, 1-((1-(2-hydroxyethyl)-1H-pyrazol-3-yl)methyl)-4-(1-(4-(trifluoromethyl)phenyl)-1H-pyrazolo[3,4-b]pyridin-3-yl)pyridin-2(1H)-one], the IC50 was at most 100 nM in test [1] and at most 1000 nM with MSTO-211H cells.

For the compound `CN(CCO)c1ccnc(Cn2ccc(-c3nn(-c4ccc(C(F)(F)F)cc4)c4ncccc34)cc2=O)n1` [Compound 75, 1-((4-((2-hydroxyethyl)(methyl)amino)pyrimidin-2-yl)methyl)-4-(1-(4-(trifluoromethyl)phenyl)-1H-pyrazolo[3,4-b]pyridin-3-yl)pyridin-2(1H)-one], the results for the IC50 (in test [1]; with MSTO-211H cells) were at most 100 nM and at most 1000 nM, respectively.

For `COCCNc1ccnc(Cn2ccc(-c3nn(-c4ccc(C(F)(F)F)cc4)c4ncccc34)cc2=O)n1` [Compound 76, 1-((4-((2-methoxyethyl)amino)pyrimidin-2-yl)methyl)-4-(1-(4-(trifluoromethyl)phenyl)-1H-pyrazolo[3,4-b]pyridin-3-yl)pyridin-2(1H)-one], the IC50 in test [1] was at most 100 nM; with MSTO-211H cells it was at most 1000 nM.

As to `COCCNc1ccnc(Cn2ccc(-c3nn(-c4ccc(C(F)(F)F)cc4)c4ccccc34)cc2=O)n1` [Compound 78, 1-((4-((2-methoxyethyl)amino)pyrimidin-2-yl)methyl)-4-(1-(4-(trifluoromethyl)phenyl)-1H-indazol-3-yl)pyridin-2(1H)-one], the IC50 in test [1] was at most 100 nM; with MSTO-211H cells it was at most 1000 nM.

As for `COc1ccnc(Cn2ccc(-c3cn(-c4ccc(C(F)(F)F)cc4)c4ncccc34)cc2=O)n1` [Compound 80, 1-((4-methoxypyrimidin-2-yl)methyl)-4-(1-(4-(trifluoromethyl)phenyl)-1 H-pyrrolo[2,3-b]pyridin-3-yl)pyridin-2(1H)-one], the IC50 in test [1] was at most 100 nM; with MSTO-211H cells, at most 1000 nM.

For `O=c1cc(-c2nn(-c3ccc(C(F)(F)F)cc3)c3ccccc23)ccn1Cc1nccc(OCCO)n1` [Compound 81, 1-((4-(2-hydroxyethoxy)pyrimidin-2-yl)methyl)-4-(1-(4-(trifluoromethyl)phenyl)-1H-indazol-3-yl)pyridin-2(1H)-one], the IC50 in test [1] is at most 100 nM; in the test on MSTO-211H cells, at most 1000 nM.

Turning to `COCCOc1nccc(Cn2ccc(-c3nn(-c4ccc(C(F)(F)F)cc4)c4ccccc34)cc2=O)n1` [Compound 82, 1-((2-(2-methoxyethoxy)pyrimidin-4-yl)methyl)-4-(1-(4-(trifluoromethyl)phenyl)-1H-indazol-3-yl)pyridin-2(1H)-one], the IC50 is at most 100 nM in test [1] and at most 1000 nM in the test with MSTO-211H cells.

For `COc1cccc(Cn2ccc(-c3nn(-c4ccc(C(F)(F)F)cc4)c4ccccc34)cc2=O)n1` [Compound 83, 1-((6-methoxypyridin-2-yl)methyl)-4-(1-(4-(trifluoromethyl)phenyl)-1 H-indazol-3-yl)pyridin-2(1H)-one], the values for the IC50 (in test [1]; in the test with MSTO-211H cells) were at most 100 nM and at most 1000 nM, respectively.

As for `O=c1cc(-c2nn(-c3ccc(C(F)(F)F)cc3)c3ccccc23)ccn1Cc1nccc(N2CCOCC2)n1` [Compound 84, 1-((4-morpholinopyrimidin-2-yl)methyl)-4-(1-(4-(trifluoromethyl)phenyl)-1H-indazol-3-yl)pyridin-2(1H)-one], the results for the IC50 (in test [1]; with MSTO-211H cells) were at most 100 nM and at most 1000 nM, respectively.

Take `O=c1cc(-c2nn(-c3ccc(C(F)(F)F)cc3)c3ccccc23)ccn1Cc1nccc(N2CC(O)C2)n1` [Compound 85, 1-((4-(3-hydroxyazetidin-1-yl)pyrimidin-2-yl)methyl)-4-(1-(4-(trifluoromethyl)phenyl)-1H-indazol-3-yl)pyridin-2(1H)-one]: the IC50 is at most 100 nM in test [1] and at most 1000 nM in the test with MSTO-211H cells.

`O=c1cc(-c2nn(-c3ccc(C(F)(F)F)cc3)c3ccccc23)ccn1Cc1nccc(N2CCC(O)CC2)n1` [Compound 86, 1-((4-(4-hydroxypiperidin-1-yl)pyrimidin-2-yl)methyl)-4-(1-(4-(trifluoromethyl)phenyl)-1H-indazol-3-yl)pyridin-2(1H)-one]: the IC50 in test [1] was at most 100 nM; in the test with MSTO-211H cells, at most 1000 nM.

For the compound `O=c1cc(-c2nn(-c3ccc(C(F)(F)F)cc3)c3ccccc23)ccn1Cc1nccc(N2CC3(COC3)C2)n1` [Compound 87, 1-((4-(2-oxa-6-azaspiro[3.3]heptan-6-yl)pyrimidin-2-yl)methyl)-4-(1-(4-(trifluoromethyl)phenyl)-1H-indazol-3-yl)pyridin-2(1H)-one], the IC50 is at most 100 nM in test [1] and at most 1000 nM in the test with MSTO-211H cells.

Turning to `O=c1cc(-c2nn(-c3ccc(C(F)(F)F)cc3)c3ncccc23)ccn1Cc1cccnc1` [Compound 88, 1-(pyridin-3-ylmethyl)-4-(1-(4-(trifluoromethyl)phenyl)-1H-pyrazolo[3,4-b]pyridin-3-yl)pyridin-2(1H)-one], the IC50 was at most 100 nM in test [1] and at most 1000 nM in the test with MSTO-211H cells.

Take `O=c1cc(-c2nn(-c3ccc(C(F)(F)F)cc3)c3ccccc23)ccn1Cc1cccc(Cl)n1` [Compound 89, 1-((6-chloropyridin-2-yl)methyl)-4-(1-(4-(trifluoromethyl)phenyl)-1H-indazol-3-yl)pyridin-2(1H)-one]: the figures for the IC50 (in test [1]; in the test with MSTO-211H cells) were at most 100 nM and at most 1000 nM, respectively.

On to `CO[C@H]1C[C@@H](Nc2ccnc(Cn3ccc(-c4nn(-c5ccc(C(F)(F)F)cc5)c5ccccc45)cc3=O)n2)C1` [Compound 90, 1-((4-(((1s,3s)-3-methoxycyclobutyl)amino)pyrimidin-2-yl)methyl)-4-(1-(4-(trifluoromethyl)phenyl)-1H-indazol-3-yl)pyridin-2(1H)-one], for which the IC50 in test [1] is 100 to 1000 nM; in the test on MSTO-211H cells, at most 1000 nM.

For the compound `CO[C@H]1C[C@H](Nc2ccnc(Cn3ccc(-c4nn(-c5ccc(C(F)(F)F)cc5)c5ccccc45)cc3=O)n2)C1` [Compound 91, 1-((4-(((1r,3r)-3-methoxycyclobutyl)amino)pyrimidin-2-yl)methyl)-4-(1-(4-(trifluoromethyl)phenyl)-1H-indazol-3-yl)pyridin-2(1H)-one], the figures for the half-inhibitory concentration (IC50) (in test [1]; in the test with MSTO-211H cells) were at most 100 nM and at most 1000 nM, respectively.

For the compound `CNc1nccc(Cn2ccc(-c3nn(-c4ccc(C(F)(F)F)cc4)c4ccccc34)cc2=O)n1` [Compound 92, 1-((2-(methylamino)pyrimidin-4-yl)methyl)-4-(1-(4-(trifluoromethyl)phenyl)-1H-indazol-3-yl)pyridin-2(1H)-one], the IC50 in test [1] was at most 100 nM; in the test on MSTO-211H cells, at most 1000 nM.

As to `O=c1cc(-c2nn(-c3ccc(C(F)(F)F)cc3)c3ccccc23)ccn1Cc1ccnc(OCCO)n1` [Compound 93, 1-((2-(2-hydroxyethoxy)pyrimidin-4-yl)methyl)-4-(1-(4-(trifluoromethyl)phenyl)-1H-indazol-3-yl)pyridin-2(1H)-one], the IC50 in test [1] was at most 100 nM; in the test with MSTO-211H cells it was at most 1000 nM.

Take `CN(CCO)c1nccc(Cn2ccc(-c3nn(-c4ccc(C(F)(F)F)cc4)c4ccccc34)cc2=O)n1` [Compound 94, 1-((2-((2-hydroxyethyl)(methyl)amino)pyrimidin-4-yl)methyl)-4-(1-(4-(trifluoromethyl)phenyl)-1H-indazol-3-yl)pyridin-2(1H)-one]: the results for the IC50 (in test [1]; in the test with MSTO-211H cells) were at most 100 nM and at most 1000 nM, respectively.

As for `O=c1cc(-c2nn(-c3ccc(C(F)(F)F)cc3)c3ccccc23)ccn1Cc1ccnc(N2CC(O)C2)n1` [Compound 95, 1-((2-(3-hydroxyazetidin-1-yl)pyrimidin-4-yl)methyl)-4-(1-(4-(trifluoromethyl)phenyl)-1H-indazol-3-yl)pyridin-2(1H)-one], the concentration for half-maximal inhibition (IC50) was at most 100 nM in test [1] and at most 1000 nM with MSTO-211H cells.

For `Cn1nc(Cn2ccc(-c3nn(-c4ccc(C(F)(F)F)cc4)c4ccccc34)cc2=O)ccc1=O` [Compound 96, 2-methyl-6-((2-oxo-4-(1-(4-(trifluoromethyl)phenyl)-1H-indazol-3-yl)pyridin-1(2H)-yl)methyl)pyridazin-3(2H)-one], the figures for the IC50 (in test [1]; in the test with MSTO-211H cells) were at most 100 nM and 1000 to 10000 nM, respectively.

Regarding `CNc1nccc(Cn2ccc(-c3nn(-c4ccc(C(F)(F)F)cc4)c4ncccc34)cc2=O)n1` [Compound 97, 1-((2-(methylamino)pyrimidin-4-yl)methyl)-4-(1-(4-(trifluoromethyl)phenyl)-1H-pyrazolo[3,4-b]pyridin-3-yl)pyridin-2(1H)-one], the IC50 in test [1] is at most 100 nM; with MSTO-211H cells, at most 1000 nM.

Regarding `CNc1cc(Cn2ccc(-c3nn(-c4ccc(C(F)(F)F)cc4)c4ncccc34)cc2=O)ncn1` [Compound 98, 1-((6-(methylamino)pyrimidin-4-yl)methyl)-4-(1-(4-(trifluoromethyl)phenyl)-1H-pyrazolo[3,4-b]pyridin-3-yl)pyridin-2(1H)-one], the half-maximal inhibitory concentration (IC50) in test [1] was at most 100 nM; in the test on MSTO-211H cells, at most 1000 nM.
